From patent US20090215822A1, “Substituted Oxadiazole Derivatives as Positive Allosteric Modulators of Metabotropic Glutamate Receptors” (NIKEM RESEARCH SRL, priority 2005, published 2009)

Legend:
[1] = target: T1, rat mGluR5 receptor (Rattus norvegicus, UniProt P31424); assay: mGluR5 assay on HEK-expressing rat mGluR5 (fluorescent cell based Ca2+ mobilization assay); settings: for activation of rat mGluR5 receptors without co-addition of glutamate: HEK-rat mGluR5 cell line, no added glutamate or agonist; for EC50: HEK-293 cells stably expressing rat mGluR5, no co-addition of glutamate, mean of at least three independent experiments in duplicate, read-out: Ca++ Flux (mean EC50)
T1 construct: expressed in transfected cells
Method: Positive functional expression of HEK-293 cells stably expressing rat mGluR5 receptor was determined by measuring intracellular Ca^2+ changes using a Fluorometric Imaging Plate Reader (FLIPR, Molecular Devices, Sunnyvale, Calif.) in response to glutamate or selective known mGluR5 agonists and antagonists. Rat mGluR5 RT-PCR products in HEK-293 cells were sequenced and found 100% identical to rat mGluR5 Genbank reference sequence (NM_017012). HEK-293 cells expressing rmGluR5 were maintained in media containing DMEM, dialyzed Fetal Bovine Serum (10%), Glutamax™ (2 mM), Penicillin (100 units/ml), Streptomycin (100 μg/ml), Geneticin (100 μg/ml) and Hygromycin-B (40 μg/ml) at 37° C./5% CO2.
After one day of incubation, cells were washed with assay buffer containing: 142 mM NaCl, 6 mM KCl, 1 mM Mg2SO4, 1 mM CaCl2, 20 mM HEPES, 1 g/L glucose, 0.125 mM sulfinpyrazone, pH 7.4. After 60 min of loading with 4 uM Fluo-4 (TefLabs, Austin, Tex.), the cells were washed three times with 50 μl of PBS Buffer and resuspended in […] of assay Buffer. The plates were then transferred to a Fluorometric Imaging Plate Reader (FLIPR, Molecular Devices, Sunnyvale, Calif.) for the assessment of intracellular calcium flux. After monitoring the baseline fluorescence for 10 seconds, increasing concentrations of representative compound (from 0.01 to 60 μM) of the present invention diluted in Assay Buffer (15 μl of 4× dilutions) was added to the cell. The final DMSO concentration in the assay was 0.3%. In each experiment, fluorescence was then monitored as a function of time for 3 minutes and the data analyzed using Microsoft Excel and GraphPad Prism. Each data point was also measured two times.
Under these experimental conditions, this HEK-rat mGluR5 cell line is able to directly detect positive allosteric modulators without the need of co-addition of glutamate or mGluR5 agonist.
The concentration-response curves of representative compounds of the present invention were generated using the Prism GraphPad software (Graph Pad Inc, San Diego, USA). The curves were fitted to a four-parameter logistic equation:
(Y=Bottom+(Top-Bottom)/(1+10̂((Log EC50−X)*Hill Slope)
allowing determination of EC50 values.
The Table 1 below represents the mean EC50 obtained from at least three independent experiments of selected molecules performed in duplicate.

[2] = target: T2, mGluR5 (Rattus norvegicus, UniProt P31424); settings: Liu et al (2006), Zhang et al (2005); cited from earlier work
T2 construct: positive allosteric modulators of mGluR5 receptors in native preparations; endogenous in cells; host or cells: primary cortical astrocytes from Sprague-Dawley rat embryos (E16-19)
T2 sequence (P31424 21-1203): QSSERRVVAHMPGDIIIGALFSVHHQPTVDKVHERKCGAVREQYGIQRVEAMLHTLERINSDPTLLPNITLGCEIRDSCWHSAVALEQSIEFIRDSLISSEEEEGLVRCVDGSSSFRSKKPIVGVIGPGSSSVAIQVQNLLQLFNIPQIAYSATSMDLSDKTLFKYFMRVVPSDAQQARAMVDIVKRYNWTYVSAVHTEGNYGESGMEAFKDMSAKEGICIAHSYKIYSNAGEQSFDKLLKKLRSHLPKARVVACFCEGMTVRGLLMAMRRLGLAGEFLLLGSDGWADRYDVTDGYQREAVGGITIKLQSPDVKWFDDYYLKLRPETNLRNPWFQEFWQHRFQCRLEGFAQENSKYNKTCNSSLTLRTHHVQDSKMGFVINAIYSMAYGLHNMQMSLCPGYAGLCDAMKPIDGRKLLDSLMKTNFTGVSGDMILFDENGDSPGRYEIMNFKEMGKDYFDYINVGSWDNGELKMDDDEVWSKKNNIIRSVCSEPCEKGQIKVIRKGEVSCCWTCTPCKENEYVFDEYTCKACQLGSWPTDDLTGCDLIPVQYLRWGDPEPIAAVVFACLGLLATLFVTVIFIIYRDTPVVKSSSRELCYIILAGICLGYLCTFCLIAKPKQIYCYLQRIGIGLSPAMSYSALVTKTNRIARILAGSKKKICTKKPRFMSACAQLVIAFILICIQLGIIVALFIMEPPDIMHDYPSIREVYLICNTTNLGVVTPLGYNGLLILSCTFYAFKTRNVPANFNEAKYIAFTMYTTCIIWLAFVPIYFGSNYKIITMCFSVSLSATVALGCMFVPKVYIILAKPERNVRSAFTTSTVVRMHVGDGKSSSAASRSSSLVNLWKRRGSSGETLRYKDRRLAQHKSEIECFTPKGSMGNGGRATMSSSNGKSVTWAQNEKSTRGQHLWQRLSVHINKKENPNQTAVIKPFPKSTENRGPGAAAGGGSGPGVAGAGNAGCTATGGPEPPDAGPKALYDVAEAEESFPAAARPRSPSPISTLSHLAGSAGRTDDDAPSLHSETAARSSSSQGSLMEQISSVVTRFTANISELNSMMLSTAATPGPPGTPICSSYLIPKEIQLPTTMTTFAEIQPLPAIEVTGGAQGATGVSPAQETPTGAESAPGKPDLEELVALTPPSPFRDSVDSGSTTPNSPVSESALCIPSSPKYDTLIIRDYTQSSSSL

T1 sequence (P31424 21-1171 isoform P31424-2 limits assumed): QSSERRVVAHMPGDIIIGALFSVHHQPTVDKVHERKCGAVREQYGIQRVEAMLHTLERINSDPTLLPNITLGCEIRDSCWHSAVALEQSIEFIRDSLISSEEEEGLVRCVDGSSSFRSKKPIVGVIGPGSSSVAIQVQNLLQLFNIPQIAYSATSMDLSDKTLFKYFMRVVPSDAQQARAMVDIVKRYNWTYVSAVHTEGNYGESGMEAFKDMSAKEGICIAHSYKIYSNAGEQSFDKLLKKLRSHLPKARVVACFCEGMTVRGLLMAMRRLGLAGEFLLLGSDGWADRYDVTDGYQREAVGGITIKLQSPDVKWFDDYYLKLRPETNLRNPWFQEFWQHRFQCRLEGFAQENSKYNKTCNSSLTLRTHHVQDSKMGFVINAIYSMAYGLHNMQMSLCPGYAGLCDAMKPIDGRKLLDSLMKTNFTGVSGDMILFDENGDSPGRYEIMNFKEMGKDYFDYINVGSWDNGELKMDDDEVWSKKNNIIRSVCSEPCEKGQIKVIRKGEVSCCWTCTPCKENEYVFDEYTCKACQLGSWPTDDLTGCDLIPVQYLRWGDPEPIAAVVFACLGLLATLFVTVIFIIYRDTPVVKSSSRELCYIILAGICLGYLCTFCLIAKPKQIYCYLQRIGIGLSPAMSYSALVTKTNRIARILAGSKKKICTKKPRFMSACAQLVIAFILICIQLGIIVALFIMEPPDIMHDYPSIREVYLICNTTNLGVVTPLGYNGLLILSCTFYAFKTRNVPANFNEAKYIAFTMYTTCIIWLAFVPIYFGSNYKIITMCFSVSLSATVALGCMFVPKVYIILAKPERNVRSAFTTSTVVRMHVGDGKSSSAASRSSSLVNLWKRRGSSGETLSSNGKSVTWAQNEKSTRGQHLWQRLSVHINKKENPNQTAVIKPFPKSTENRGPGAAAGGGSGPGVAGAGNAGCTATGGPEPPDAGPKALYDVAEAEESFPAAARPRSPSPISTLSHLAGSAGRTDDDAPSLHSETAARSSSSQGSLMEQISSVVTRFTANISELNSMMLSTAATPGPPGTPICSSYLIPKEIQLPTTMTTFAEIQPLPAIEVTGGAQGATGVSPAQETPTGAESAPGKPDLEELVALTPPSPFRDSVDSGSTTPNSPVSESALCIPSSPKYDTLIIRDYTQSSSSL

In the case of `N#Cc1cccc(C(=O)Nc2cc(-c3ccccc3)nn2-c2ccccc2)c1` [CDPPB, reference compound], the “activation of rat mGluR5 receptors without co-addition of glutamate” value [1] is listed as “activating” and the “activity in rat cortical astrocytes culture in the absence of added glutamate” value (“activity” below) [2] is listed as “inactive”.
In the case of `O=C(Nc1ccc(Cl)cc1CN1C(=O)c2ccccc2C1=O)c1ccccc1O` [CPPHA, reference compound], the “activation of rat mGluR5 receptors without co-addition of glutamate” value [1] is given as “activating” and the “activity” value [2] is given as “inactive”.
In the case of `Fc1cccc(/C=N/N=C/c2cccc(F)c2)c1` [DFB, reference compound], the “activation of rat mGluR5 receptors without co-addition of glutamate” value [1] is given as “activating” and the “activity” value [2] is given as “inactive”.
For `O=C(c1ccc(F)c(F)c1)N1CCCC(c2noc(-c3ccncc3)n2)C1` (centres unmarked) [Example 15, (3,4-Difluoro-phenyl)-[3-(5-pyridin-4-yl-[1,2,4]oxadiazol-3-yl)-piperidin-1-yl]-methanone], the EC50 [1] was under 1 µM and the melting point was 132 to 134 °C.
`O=C(c1ccc(F)cc1F)N1CCCC(c2noc(-c3ccncc3)n2)C1` (centres unmarked) [Example 16, (2,4-Difluoro-phenyl)-[3-(5-pyridin-4-yl-[1,2,4]oxadiazol-3-yl)-piperidin-1-yl]-methanone] showed an EC50 [1] of 1 to 10 µM and a melting point of 137 to 139 °C.
In the case of `O=C(c1ccc(F)c(F)c1)N1CCCC(c2noc(-c3ccc(F)cc3F)n2)C1` (centres unmarked) [Example 17, (3,4-Difluoro-phenyl)-{3-[5-(2,4-difluoro-phenyl)-[1,2,4]oxadiazol-3-yl]-piperidin-1-yl}-methanone], the EC50 [1] is reported as under 1 µM and the melting point is reported as 91 °C.
Molecule `O=C(c1ccc(F)cc1F)N1CCCC(c2noc(-c3ccc(F)cc3)n2)C1` (centres unmarked) [Example 18, (2,4-Difluoro-phenyl)-{3-[5-(4-fluoro-phenyl)-[1,2,4]oxadiazol-3-yl]-piperidin-1-yl}-methanone] has an EC50 [1] of under 1 µM and a melting point of 137 to 139 °C.
In the case of `O=C(c1ccc(F)cc1F)N1CCCC(c2noc(-c3ccc(F)cc3F)n2)C1` (centres unmarked) [Example 19, (2,4-Difluoro-phenyl)-{3-[5-(2,4-difluoro-phenyl)-[1,2,4]oxadiazol-3-yl]-piperidin-1-yl}-methanone], the EC50 [1] is reported as 1 to 10 µM and the melting point is reported as 101 °C.
With `O=C(c1ccc(F)nc1)N1CCCC(c2noc(-c3ccncc3)n2)C1` (centres unmarked) [Example 21, (6-Fluoro-pyridin-3-yl)-[3-(5-pyridin-4-yl-[1,2,4]oxadiazol-3-yl)-piperidin-1-yl]-methanone] the EC50 [1] was 1 to 10 µM and the melting point was 132 to 134 °C.
For `Cc1oncc1C(=O)N1CCCC(c2noc(-c3ccc(F)cc3F)n2)C1` (centres unmarked) [Example 24, {3-[5-(2,4-Difluoro-phenyl)-[1,2,4]oxadiazol-3-yl]-piperidin-1-yl}-(5-methyl-isoxazol-4-yl)-methanone], the EC50 [1] was 1 to 10 µM and the melting point was 79 °C.
Molecule `O=C(c1ccc(F)nc1)N1CCCC(c2noc(-c3ccc(F)cc3F)n2)C1` (centres unmarked) [Example 25, {3-[5-(2,4-Difluoro-phenyl)-[1,2,4]oxadiazol-3-yl]-piperidin-1-yl}-(6-fluoro-pyridin-3-yl)-methanone] has an EC50 [1] of 1 to 10 µM and a melting point of 87 °C.
`Cc1cc(F)ccc1C(=O)N1CCCC(c2noc(-c3ccc(F)cc3)n2)C1` (centres unmarked) [Example 27, (4-Fluoro-2-methyl-phenyl)-{3-[5-(4-fluoro-phenyl)-[1,2,4]oxadiazol-3-yl]-piperidin-1-yl}-methanone] showed an EC50 [1] of 1 to 10 µM and a melting point of 129 to 131 °C.
Work on `Cc1oncc1C(=O)N1CCCC(c2noc(-c3ccc(F)cc3)n2)C1` (centres unmarked) [Example 28, {3-[5-(4-Fluoro-phenyl)-[1,2,4]oxadiazol-3-yl]-piperidin-1-yl}-(5-methyl-isoxazol-4-yl)-methanone] yielded an EC50 [1] of under 1 µM and a melting point of 105 to 107 °C.
Work on `O=C(c1ccc(F)nc1)N1CCCC(c2noc(-c3ccccc3)n2)C1` (centres unmarked) [Example 29, (6-Fluoro-pyridin-3-yl)-[3-(5-phenyl-[1,2,4]oxadiazol-3-yl)-piperidin-1-yl]-methanone] yielded an EC50 [1] of under 1 µM and a melting point of 109 to 111 °C.
Work on `O=C(c1ccc(F)nc1)N1CCCC(c2noc(-c3cscn3)n2)C1` (centres unmarked) [Example 30, (6-Fluoro-pyridin-3-yl)-[3-(5-thiazol-4-yl-[1,2,4]oxadiazol-3-yl)-piperidin-1-yl]-methanone] yielded an EC50 [1] of over 10 µM and a melting point of 90 °C.
With `Cc1cc(F)ccc1C(=O)N1CCCC(c2noc(-c3ccc(F)cc3F)n2)C1` (centres unmarked) [Example 31, {3-[5-(2,4-Difluoro-phenyl)-[1,2,4]oxadiazol-3-yl]-piperidin-1-yl}-(4-fluoro-2-methyl-phenyl)-methanone] the EC50 [1] was 1 to 10 µM and the melting point was 110 °C.
For `O=C(c1ccc(F)c(F)c1)N1CCCC(c2noc(-c3ccccc3)n2)C1` (centres unmarked) [Example 32, (3,4-Difluoro-phenyl)-[3-(5-phenyl-[1,2,4]oxadiazol-3-yl)-piperidin-1-yl]-methanone], the EC50 [1] was under 1 µM and the melting point was 116 to 118 °C.
For `O=C(c1ccc(F)cc1F)N1CCCC(c2noc(-c3ccccc3)n2)C1` (centres unmarked) [Example 33, (2,4-Difluoro-phenyl)-[3-(5-phenyl-[1,2,4]oxadiazol-3-yl)-piperidin-1-yl]-methanone], the EC50 [1] was under 1 µM and the melting point was 116 to 117 °C.
`O=C(c1ccc(F)nc1)N1CCC[C@H](c2noc(-c3ccc(F)cc3)n2)C1` [Example 36, {(S)-3-[5-(4-Fluoro-phenyl)-[1,2,4]oxadiazol-3-yl]-piperidin-1-yl}-(6-fluoro-pyridin-3-yl)-methanone] gave an EC50 [1] of under 1 µM and a melting point of 103 to 104 °C.
Molecule `O=C(c1ccc(F)c(F)c1)N1CCC[C@H](c2noc(-c3ccc(F)cc3)n2)C1` [Example 37, (3,4-Difluoro-phenyl)-{(S)-3-[5-(4-fluoro-phenyl)-[1,2,4]oxadiazol-3-yl]-piperidin-1-yl}-methanone] has an EC50 [1] of under 1 µM and a melting point of 120 °C.
`Cc1noc(C)c1C(=O)N1CCC[C@H](c2noc(-c3ccc(F)cc3)n2)C1` [Example 38, (3,5-Dimethyl-isoxazol-4-yl)-{(S)-3-[5-(4-fluoro-phenyl)-[1,2,4]oxadiazol-3-yl]-piperidin-1-yl}-methanone] gave an EC50 [1] of under 1 µM and a melting point of 85 °C.
Molecule `Cc1oncc1C(=O)N1CCC[C@H](c2noc(-c3ccc(F)cc3)n2)C1` [Example 39, {(S)-3-[5-(4-Fluoro-phenyl)-[1,2,4]oxadiazol-3-yl]-piperidin-1-yl}-(5-methyl-isoxazol-4-yl)-methanone] has an EC50 [1] of under 1 µM and a melting point of 65 °C.
Molecule `O=C(c1ccnc(F)c1)N1CCC[C@H](c2noc(-c3ccc(F)cc3)n2)C1` [Example 40, {(S)-3-[5-(4-Fluoro-phenyl)-[1,2,4]oxadiazol-3-yl]-piperidin-1-yl}-(2-fluoro-pyridin-4-yl)-methanone] has an EC50 [1] of under 1 µM and a melting point of 117 to 119 °C.
Molecule `O=C(c1ccc(F)cn1)N1CCC[C@H](c2noc(-c3ccc(F)cc3)n2)C1` [Example 42, {(S)-3-[5-(4-Fluoro-phenyl)-[1,2,4]oxadiazol-3-yl]-piperidin-1-yl}-(5-fluoro-pyridin-2-yl)-methanone] has an EC50 [1] of 1 to 10 µM and a melting point of 93 to 95 °C.
With `O=C(c1ccc(F)cc1)N1CCC[C@H](c2noc(-c3ccc(F)cn3)n2)C1` [Example 44, (S)-(4-fluorophenyl)-{3-[5-(5-fluoropyridin-2-yl)-[1,2,4]oxadiazol-3-yl]-piperidin-1-yl}-methanone] the EC50 [1] was under 1 µM and the melting point was 108 to 110 °C.
